According to ChEMBL document CHEMBL3612024, “Synthesis of five and six-membered heterocycles bearing an arylpiperazinylalkyl side chain as orally active antinociceptive agents” (2015):
The source made the active and inactive calls. No cut-off for these calls is given here.

Tests used:
Details in all cases: Abdomen
Mus musculus [1] = experiment: Antinociceptive activity in Swiss albino mouse assessed as inhibition of acetic acid-induced abdominal constriction at 20 mg/kg, po administered 30 mins prior to testing measured for 10 mins starting 5 mins after acetic acid injection relative to control; type: functional
Mus musculus [2] = experiment: Antinociceptive activity in Swiss albino mouse assessed as inhibition of acetic acid-induced abdominal constriction at 40 mg/kg, po administered 30 mins prior to testing measured for 10 mins starting 5 mins after acetic acid injection relative to control; type: functional
Mus musculus [3] = experiment: Antinociceptive activity in Swiss albino mouse assessed as inhibition of acetic acid-induced abdominal constriction at 20 mg/kg, po administered 30 mins prior to testing measured for 10 mins starting 5 mins after acetic acid injection in presence of alpha-2 adrenergic receptor antagonist yohimbine; type: functional, organism-based
Mus musculus [4] = experiment: Antinociceptive activity in Swiss albino mouse assessed as inhibition of acetic acid-induced abdominal constriction at 10 mg/kg, po administered 30 mins prior to testing measured for 10 mins starting 5 mins after acetic acid injection relative to control; type: functional
Mus musculus [5] = experiment: Antinociceptive activity in Swiss albino mouse assessed as inhibition of acetic acid-induced abdominal constriction at 40 mg/kg, po administered 30 mins prior to testing measured for 10 mins starting 5 mins after acetic acid injection in presence of alpha-2 adrenergic receptor antagonist yohimbine; type: functional, organism-based
Mus musculus [6] = experiment: Antinociceptive activity in Swiss albino mouse assessed as inhibition of acetic acid-induced abdominal constriction at 30 mg/kg, po administered 30 mins prior to testing measured for 10 mins starting 5 mins after acetic acid injection in presence of alpha-2 adrenergic receptor antagonist yohimbine; type: functional, organism-based
Mus musculus [7] = experiment: Antinociceptive activity in Swiss albino mouse assessed as inhibition of acetic acid-induced abdominal constriction at 30 mg/kg, po administered 30 mins prior to testing measured for 10 mins starting 5 mins after acetic acid injection relative to control; type: functional
Mus musculus [8] = experiment: Antinociceptive activity in Swiss albino mouse assessed as inhibition of acetic acid-induced abdominal constriction at 80 mg/kg, po administered 30 mins prior to testing measured for 10 mins starting 5 mins after acetic acid injection relative to control; type: functional

SMILES | inhibition in vivo at 20 mg/kg (Mus musculus [1]) [%] | inhibition in vivo at 40 mg/kg (Mus musculus [2]) [%] | inhibition (Mus musculus [3]) | inhibition in vivo at 10 mg/kg (Mus musculus [4]) [%] | inhibition (Mus musculus [5]) | inhibition (Mus musculus [6]) | inhibition in vivo at 30 mg/kg (Mus musculus [7]) [%] | inhibition in vivo at 80 mg/kg (Mus musculus [8]) [%] | inhibition (Mus musculus [4]) | inhibition (Mus musculus [7])
COc1cccc(N2CCN(CCCn3nc(-c4ccccc4)c(C#N)c3C)CC2)c1 | 21 | 34 | inactive | 0 |  |  |  |  |  | 
CC(=O)c1cccn1CCCN1CCN(c2ccc(F)cc2)CC1 | 16 | 38 |  | 0 | inactive |  |  |  |  | 
C=Cc1c(C)nn(CC(C)CN2CCN(c3ccc(C)cc3)CC2)c(=O)c1N (configuration not stated) |  |  |  | 17 |  | inactive | 47 |  |  | 
CCC(=O)c1c(C)nn(CCCN2CCN(c3ccc(C)cc3)CC2)c(=O)c1N | 40 | 29 | inactive | 9 |  |  |  |  |  | 
C=Cc1c(C)nn(CCCN2CCCN(c3ccc(C)cc3)CC2)c(=O)c1N | 10 | 31 |  | 0 | inactive |  |  |  |  | 
CCc1nn(CCCN2CCN(c3ccc(C)cc3)CC2)c(=O)c(N)c1C(C)=O | 42 | 41 | inactive | 10 |  |  |  |  |  | 
C=Cc1c(C)nn(CCCN2CCN(c3ccc(F)cc3)CC2)c(=O)c1N |  |  |  | 0 |  | inactive | 28 |  |  | 
C=Cc1c(CC)nn(CCCN2CCN(c3ccc(C)cc3)CC2)c(=O)c1N | 0 | 28 |  | 0 | inactive |  |  |  |  | 
O=c1occ(-c2ccccc2)n1CCCN1CCN(c2ccc(F)cc2)CC1 | 12 | 34 |  | 14 | inactive |  |  |  |  | 
C/C=C/c1c(C)nn(CCCN2CCN(c3ccc(C)cc3)CC2)c(=O)c1N | 44 | 63 | inactive | 0 |  |  |  |  |  | 
C=Cc1c(CCCC)nn(CCCN2CCN(c3ccc(C)cc3)CC2)c(=O)c1N | 41 | 48 | inactive | 0 |  |  |  |  |  | 
CC(=O)c1cccn1CCCN1CCN(c2cccc(Cl)c2)CC1 | 41 | 54 | inactive | 3 |  |  |  |  |  | 
CC/C=C/c1c(C)nn(CCCN2CCN(c3ccc(C)cc3)CC2)c(=O)c1N | 35 | 45 | inactive | 5 |  |  |  |  |  | 
C=Cc1c(C)nn(CCCN2CCN(c3ccc(C)cc3)CC2)c(=O)c1N |  | 65 |  | 33 | inactive |  | 59 |  |  | 
CC(=O)c1cccn1CCCN1CCN(c2ccc([N+](=O)[O-])cc2)CC1 | 11 | 0 |  |  |  |  |  | 9 |  | 
CCCCC(=O)c1c(C)nn(CCCN2CCN(c3ccc(C)cc3)CC2)c(=O)c1N | 23 | 15 | inactive | 8 |  |  |  |  |  | 

SMILES | inhibition in vivo at 20 mg/kg (Mus musculus [1]) [%] | inhibition in vivo at 40 mg/kg (Mus musculus [2]) [%] | inhibition (Mus musculus [3]) | inhibition in vivo at 10 mg/kg (Mus musculus [4]) [%] | inhibition (Mus musculus [5]) | inhibition (Mus musculus [6]) | inhibition in vivo at 30 mg/kg (Mus musculus [7]) [%] | inhibition in vivo at 80 mg/kg (Mus musculus [8]) [%] | inhibition (Mus musculus [4]) | inhibition (Mus musculus [7])
Cc1c(C#N)c(-c2ccccc2)nn1CCCN1CCN(c2cccc(Cl)c2)CC1 | 0 | 23 |  |  | inactive |  |  |  |  | 
COc1cccc(N2CCN(CCCn3c(-c4ccccc4)coc3=O)CC2)c1 | 25 | 39 | inactive | 8 |  |  |  |  |  | 
CCCC(=O)c1c(C)nn(CCCN2CCN(c3ccc(C)cc3)CC2)c(=O)c1N | 25 | 32 | inactive | 0 |  |  |  |  |  | 
C=Cc1c(C)nn(CCCCN2CCN(c3ccc(C)cc3)CC2)c(=O)c1N |  |  |  | 3 |  | inactive | 42 |  |  | 
COc1cccc(N2CCN(CCCn3cccc3C(C)=O)CC2)c1 | 26 | 52 |  | 0 | inactive |  |  |  |  | 
C=Cc1c(C)nn(CCCCN2CCN(c3ccccc3OCC)CC2)c(=O)c1N |  |  |  |  |  |  |  |  | inactive | inactive
Cc1ccc(N2CCN(CCCn3nc(-c4ccccc4)c(C#N)c3C)CC2)cc1 | 8 | 30 | inactive | 0 |  |  |  |  |  | 
C=Cc1c(CCC)nn(CCCN2CCN(c3ccc(C)cc3)CC2)c(=O)c1N | 7 | 22 |  | 3 | inactive |  |  |  |  | 
O=c1occ(-c2ccccc2)n1CCCN1CCN(c2cccc(Cl)c2)CC1 | 31 | 38 | inactive | 7 |  |  |  |  |  | 
CCC/C=C/c1c(C)nn(CCCN2CCN(c3ccc(C)cc3)CC2)c(=O)c1N | 16 | 36 |  | 0 | inactive |  |  |  |  | 
Cc1c(C#N)c(-c2ccccc2)nn1CCCN1CCN(c2ccc([N+](=O)[O-])cc2)CC1 | 21 | 49 |  | 0 | inactive |  |  |  |  | 
CCc1c(C)nn(CCCN2CCN(c3ccc(C)cc3)CC2)c(=O)c1N |  |  |  | 23 |  | inactive | 45 |  |  | 
Cc1c(C#N)c(-c2ccccc2)nn1CCCN1CCN(c2ccc(F)cc2)CC1 | 28 | 51 |  | 9 | inactive |  |  |  |  | 
CC(=O)c1cccn1CCCN1CCN(c2ccc(C)cc2)CC1 | 7 | 9 |  | 12 |  |  |  | 4 |  | 
C=Cc1c(C)nn(CCCN2CCN(C(=O)c3ccc(Cl)c(F)c3)CC2)c(=O)c1N |  |  |  |  |  |  |  |  | inactive | inactive
CC(=O)c1c(C)nn(CCCN2CCN(c3ccc(C)cc3)CC2)c(=O)c1N |  |  |  | 19 |  | inactive | 46 |  |  | 
